For experiment [1], the target named is JMJD6^Δ363–403 (Homo sapiens, UniProt Q6NYC1). In words: Standard MS-based hydroxylation assay (MALDI-TOF MS) of substrate peptides. The conditions noted are these: for Hydroxylation: 10 μM JMJD6^Δ363–403, 100 μM peptide, 100 μM Fe(II), 400 μM ascorbate, 500 μM 2OG, 50 mM HEPES-KOH pH 8.0, 37 °C, 30 min, MALDI-TOF MS; for Hydroxylation / kcat / Km: mean ± S.D. (n = 3); for kcat/Km^app / kcat / Km: standard hydroxylation assay conditions, substrate peptide varied 0–400 μM; for Km: read-out: Km^app; for JMJD6-catalyzed hydroxylation (+16-Da mass shift), result in words: JMJD6^Δ363–403, standard assay conditions, MALDI-TOF MS / LC-MS/MS. It counts as biochemical. Details: two more variants (aa 1–362, JMJD6^Δ363–403, and aa 1–343, JMJD6^Δ344–403); His6 (N); made in house; host or cells: Escherichia coli Rosetta2(DE3).

Experiment [2] deals with SAKcaC (stretch-activated BK channel). The experiment in a line: Single-channel current recording of SAKcaC with GsMTx4 back-filled in the pipette. The experiment is classed as cell-based, chick. The conditions noted are these: for Po of SAKcaC (amplitude histogram): 50 nM GsMTx4 in pipette, 25 min after onset of back-filling, chick ventricular myocytes, typical patch.
The mark [3] stands for this setting: JMJD6^Δ363–403, MALDI-TOF MS, inhibitor concentration not given.

Where “and” joins values, the source holds several entries; their conditions need not be identical. Equal entries are not always repeated. Ends that are not written are not given here.

In the case of “RDRRRRSKPLTRGAK [U2AF65_55–70, fragment of U2AF65]”, in experiment [1], the Hydroxylation is given as 61.0 ± 6.4%, the “kcat/Km^app” value is 34 M⁻¹ s⁻¹, the kcat is 43.0 ± 5.2 × 10^−4 s^−1 and the Km came to 124 ± 34 µM.

Regarding “ERGRRSRSTSKT [SRSF11_299–310, fragment of SRSF11]”, in experiment [1], the Hydroxylation stood at 6.40 ± 0.90%.

On to “SRRRSRSKSPFR [RBM39_121–132, fragment of RBM39]”, for which, in experiment [1], the Hydroxylation stood at 82.5 ± 5.6%, the “kcat/Km^app” value came to 303 M⁻¹ s⁻¹, the kcat is listed as 300 ± 23 × 10^−4 s^−1 and the Michaelis constant (Km) is 99 ± 19 µM.

For the molecule “RKHRSRSRDRRRSKS [CROP341–355, fragment of SR protein CROP/LUC7L3]”, in experiment [1], the Hydroxylation came to 92.7 ± 6.9%, the “kcat/Km^app” value amounted to 217 M⁻¹ s⁻¹, the kcat is given as 165 ± 12 × 10^−4 s^−1 and the Km turned out to be 76 ± 13 µM.

As to `O=C(O)c1ccnc(C(=O)O)c1` [2,4-PDCA, 2,4-pyridine dicarboxylic acid, reference compound], in experiment [1] (setting [3]), the “Hydroxylation of ERα 251–262 peptide by JMJD6 on addition of the inhibitor” value is given as “Hydroxylation was ablated” and the “Hydroxylation of WT pVHL166–177 by JMJD6 in the presence of the inhibitor” value was “did not manifest hydroxylation”.

On to “NPKRSRSREHRR [LUC7L2_267–278, reported JMJD6 substrate, fragment of SR protein LUC7L2, reference compound]”, for which, in experiment [1], the Hydroxylation amounted to 98.5 ± 4.8%; the “kcat/Km^app” value amounted to 208 M⁻¹ s⁻¹; the kcat is 106 × 10^−4 s^−1 and 106 ± 4.0 × 10^−4 s^−1; the Km stood at 51 ± 4.6 µM.

Consider “ERα251–262K257A: ERα 251–262 peptide with alanine substitution K257A (MKGGIRADRRGG; UniProt P03372 251-262, looked up, fragment K257A)”, for which the “JMJD6-catalyzed hydroxylation (+16-Da mass shift), result in words” value in experiment [1] is reported as “Hydroxylation was ablated”.

Consider “SKSRSRSHERKRS [RBM39_38–50, fragment of RBM39]”, for which, in experiment [1], the Hydroxylation came to 79.0 ± 8.9%, the “kcat/Km^app” value is 395 M⁻¹ s⁻¹, the kcat is 281 ± 15 × 10^−4 s^−1 and the Km was 71 ± 9.9 µM.

For the molecule “pVHL166–177: lysine-containing pVHL sequence (VRSLVKPENYRR; UniProt P40337 166-177, looked up, fragment)”, the “JMJD6-catalyzed hydroxylation (+16-Da mass shift), result in words” value in experiment [1] is on record as “presence of a +16-Da mass shift”.

For “KRHSRSRSRS [Acinus S′95–604, fragment of Acinus S′]”, the Hydroxylation in experiment [1] was 12.5 ± 3.0%.

On to “ERα251–262K252A: ERα 251–262 peptide with alanine substitution K252A (MAGGIRKDRRGG; UniProt P03372 251-262, looked up, fragment K252A)”, for which, in experiment [1], the “JMJD6-catalyzed hydroxylation (+16-Da mass shift), result in words” value is “Hydroxylation was ablated”.

With “pVHL166–177K171A: alanine variant of pVHL166–177 (VRSLVAPENYRR; UniProt P40337 166-177, looked up, fragment K171A)”, the “JMJD6-catalyzed hydroxylation (+16-Da mass shift), result in words” value in experiment [1] is on record as “did not manifest hydroxylation”.

For the molecule “RSPKRKLSRSPSPR [SRSF11_358–372, fragment of SRSF11]”, in experiment [1], the Hydroxylation is given as 44.1 ± 3.9%, the “kcat/Km^app” value turned out to be 229 M⁻¹ s⁻¹, the kcat is 174 ± 19 × 10^−4 s^−1 and the Km came out at 76 ± 21 µM.

Regarding “ENRHRKRSHSRSRSR [U2AF65_21–35, fragment of the RS region of U2AF65]”, in experiment [1], the Hydroxylation came out at 74.7 ± 4.1%, the “kcat/Km^app” value is 68 M⁻¹ s⁻¹, the kcat is 40.0 ± 2.2 × 10^−4 s^−1 and the Km stood at 59 ± 8.6 µM.

“SRERRKLSRSRSR [LUC7L1_287–298, fragment of LUC7L1]” showed a Hydroxylation in experiment [1] of 18.3 ± 3.1%.

Turning to “RSKSPRRRRSHSR [SRSF11_286–298, fragment of SRSF11]”, in experiment [1], the Hydroxylation was determined as 90.5 ± 5.0%, the “kcat/Km^app” value came out at 195 M⁻¹ s⁻¹, the kcat was 80.0 ± 3.9 × 10^−4 s^−1 and the Km was 41 ± 6.6 µM.

On to “H4_1–30: histone 4 peptide with unmodified arginine residues”, for which, in experiment [1], the “JMJD6-catalyzed hydroxylation (+16-Da mass shift), result in words” value is “hydroxylation of lysine residues was also observed”.

For “RKRSRSKERRRS [RBM39_71–82, fragment of RBM39]”, in experiment [1], the Hydroxylation was 87.6 ± 7.0%, the “kcat/Km^app” value came to 322 M⁻¹ s⁻¹, the kcat is listed as 284 ± 11 × 10^−4 s^−1 and the Km worked out at 88 ± 8.7 µM.

With “GsMTx4: inhibitor of stretch-activated BK channel (mismatched supplement) (GCLEFWWKCNPNDDKCCRPKLKCSKLFKLCNFSF; ends and bridges not checked; cysteine pairing not given here; UniProt Q7YT39 47-80, looked up)”, the “Po of SAKcaC (amplitude histogram)” value in experiment [2] (1 mM intracellular Ca2+) was found to be 35.5; in experiment [2] (–40 mV, 0.8 µM intracellular Ca2+), 14.2. For the same molecule, in experiment [2] (100 nM GsMTx4 in the pipette, 1 mM intracellular Ca2+, 30 min after onset of back-filling), the “Effect on stretch-activated BK channel and its single-channel conductance, result in words” value is “inhibits stretch-activated BK channel without changing single-channel conductance”.

Molecule “KSKERKRSRDRE [RBM39_51–62, fragment of RBM39]” registered a Hydroxylation in experiment [1] of 37.0 ± 7.6%.

On to “H3_1–25: histone 3 peptide with unmodified arginine residues”, for which the “JMJD6-catalyzed hydroxylation (+16-Da mass shift), result in words” value in experiment [1] was “hydroxylation of lysine residues was also observed”.

As to RSKKRKKSKSRS [RBM39_31–42], in experiment [1], the Hydroxylation is given as 99.0 ± 0.70%, the “kcat/Km^app” value came out at 455 M⁻¹ s⁻¹, the kcat is reported as 255 ± 15 × 10^−4 s^−1 and the Km amounted to 56 ± 9.6 µM.

As for “RSRSGTRSPKKPSR [SRSF11_347–360, fragment of SRSF11]”, in experiment [1], the Hydroxylation turned out to be 97.0 ± 2.2%, the “kcat/Km^app” value is 159 M⁻¹ s⁻¹, the kcat is on record as 146 ± 9.6 × 10^−4 s^−1 and the Michaelis constant (Km) amounted to 92 ± 14 µM.

For “DRKSYKHRSKSRDR [CROP357–370, fragment of SR protein CROP/LUC7L3]”, in experiment [1], the Hydroxylation turned out to be 88.7 ± 4.9%, the “kcat/Km^app” value was determined as 42 M⁻¹ s⁻¹, the kcat is recorded as 39.0 ± 3.6 × 10^−4 s^−1 and the Km is 93 ± 20 µM.

For “SRSRSRDRKRRSRSRDR [U2AF65_30–46, fragment of the RS region of U2AF65]”, in experiment [1], the Hydroxylation came to 72.4 ± 6.5%, the “kcat/Km^app” value was 118 M⁻¹ s⁻¹, the kcat is reported as 92.0 ± 7.0 × 10^−4 s^−1 and the Km is 78 ± 15 µM.

Take “PRSRSRSRDRRRKE [Acinus S′447–460, fragment of Acinus S′]”: the Hydroxylation in experiment [1] stood at 25.6 ± 2.8%.

The molecule “SRSRRRSHSKSR [SRSF11_271–282, fragment of SRSF11]” gave a Hydroxylation in experiment [1] of 33.6 ± 1.8%.

Take “SRDHKRSRSRERRRS [CROP311–325, fragment of SR protein CROP/LUC7L3]”: in experiment [1], the Hydroxylation is 89.3 ± 1.9%, the “kcat/Km^app” value stood at 269 M⁻¹ s⁻¹, the kcat is on record as 191 ± 6.6 × 10^−4 s^−1 and the Michaelis constant (Km) was 71 ± 7.2 µM.

Source of the values: paper PMC6663879, “Biochemical and structural investigations clarify the substrate selectivity of the 2-oxoglutarate oxygenase JMJD6” (The Journal of Biological Chemistry, 2019).
